# Measured values taken from patent US20230279351A1, “ARTIFICIAL ANTIGEN-SPECIFIC IMMUNOREGULATORY T (AIRT) CELLS” (Seattle Children's Hospital (dba Seattle Children's …, priority 2019, published 2023).
# Experiments:
# [1] = tested on: split IL-2 CISC (FRB-IL2RB and FKBP-IL2RG) dual-edited human CD4+ T cells; assay: Enrichment of split IL-2 CISC dual-edited CD4+ T cells; type: cell-based
# Method: FIG. 27 depicts an exemplary timeline of steps for dual AAV editing of CD4+ T cells, expansion with rapalog, and analysis of enriched cells. […] Flow cytometry to assess enrichment of GFP, mCherry double-positive cells was carried out on days 6, 8, and 10 post-editing.
# CISC components (IL2RG vs. IL2RB) are split between 2 constructs and co-expressed with either HA-FoxP3 cDNA or the islet-specific TCR, T1D4 (AAVs #3240 and #3243 respectively). Each repair template is flanked by identical homology arms that […] the gRNA targeting the TRAC locus. […] Panel B depicts a timeline of key steps for dual AAV/RNP-based editing of CD4+ T cells, expansion with Rapalog and analysis of enriched cells. […] Flow cytometry to assess enrichment of HA-FoxP3, TCR double-positive cells was carried out on days 5 and 8 post-editing.
# FIG. 60 relates to a strategy for testing two-loci dual-editing of human CD4+ T cells. […] CISC components are split between 2 constructs and co-expressed with either mCherry or GFP ([…]). Repair templates are flanked by homology arms matched to gRNAs targeting either the TRAC or FOXP3 locus, respectively. […] Panel B depicts a timeline showing steps for dual AAV editing of CD4+ T cells and expansion with Rapalog. Human CD4+ T cells were edited using human TRAC gRNA_4, human FOXP3 gRNA_T9 and #3251 (MND.mCherry.FKBP.IL2RG) and #3207 (MND.GFP.FRB.IL2RB) AAV constructs (two-loci dual editing). Immediately following electroporation, the cells were placed in either 20% or 2.5% FBS containing media (recovery media). After ~16 h, the media was replaced with 20% FBS containing media and FACS analysis done on day 3 to determine editing rate.
# In order to obtain sufficient numbers of cells for therapeutic use, it may be useful, in some contexts, to selectively expand engineered cells in vitro. […] See e.g., FIG. 108. In such methods, FRB-IL2RB and FKBP-IL2RG components were contained in the same cassette to select for single integration events.
# For these studies, FRB-IL2RB and FKBP-IL2RG components were split into two separate cassettes, one containing GFP and the other containing mCherry, to allow for selection of two independent integrations.
# A timeline for key steps for dual AAV editing of CD4+ T cells and expansion with Rapalog is depicted in FIG. 124B. […] Briefly, human CD4+ T cells were edited using human TRAC gRNA_4, and #3240 (MND.HA.FOXP3.FKBP.IL2RG) and #3243 (MND.T1D4.FRB.IL2RB) AAV constructs (single-locus dual editing). Immediately following electroporation, the cells were placed in 2.5% FBS containing media (recovery media) for ~24 hours and then maintained in 20% FBS containing media throughout the rest of the experiment.
# [2] = tested on: split-DISC (#3280 and #3207) dual-edited human CD4+ T cells; assay: Enrichment/expansion of split-DISC dual-edited CD4+ T cells; type: cell-based; conditions: 7-day treatment in AP21967 in gREX, from 340,000 cells seeded
# Method: Cells were bead-stimulated (CD3/CD28) for 3 days prior to editing. […] Panel C depicts flow plots show the percentage of GFP/mCherry double-positive cells on day 3 post-editing.
# Dual-editing was performed as described in FIG. 70.
# Split-DISC constructs were used to determine the enrichment and expansion of dual-edited T cells. The ability to scale up manufacturing to obtain cell numbers sufficient for animal studies by expanding edited CD4+ T cells in gREX flasks was assessed. In particular, dual-editing and enrichment of human CD4+ T Cells using split-DISC constructs was studied. […] Each repair template (#3280 and #3207) was flanked by identical homology arms matched to a gRNA targeting the TRAC locus. […] Cells were bead stimulated (CD3/CD28) for 3 days prior to editing. Immediately following electroporation, the cells were placed in 2.5% FBS containing media (recovery media) for ~24 hours and then maintained in 20% FBS containing media throughout the rest of the experiment. Three days post editing, cells were analyzed by flow for GFP and mCherry expression, and then expanded in media containing 50 ng/ml human IL-2 or 100 nM Rapalog.
# Cells were bead stimulated (CD3/CD28) for 3 days prior to editing. Three days post editing, cells were analyzed by flow for GFP and mCherry expression, and then expanded in media containing 100 nM Rapalog for an additional 7 days.
compound,measurement,setting,value
CO[C@H]1[C@@H](O)[C@H](C)C[C@H](C)/C=C/C=C/C=C(\C)[C@@H](c2c[nH]c3c(C)cccc23)C[C@@H]2CC[C@@H](C)[C@@](O)(O2)C(=O)C(=O)N2CCCC[C@H]2C(=O)O[C@H]([C@H](C)C[C@@H]2CC[C@@H](O)[C@H](OC)C2)C[C@H](O)[C@H](C)/C=C(\C)[C@H]1O [Rapalog],enrichment of double-positive cells,"[1]; #3240 and #3243, cells recovered in 2.5% FBS, 7 days of Rapalog treatment",~10 fold
same,FOXP3/T1D4 double positive cells,"[1]; #3240 and #3243, day 7, 100 nM AP21967 or 50 ng/mL IL-2, initial 1.6%",19.1%
same,GFP/mCherry double-positive cells,"[1]; donor R003471, enriched in presence of Rapalog (FIG. 32)",28.5%
same,GFP/mCherry double-positive cells,"[1]; donor R003657, enriched in presence of Rapalog (FIG. 32)",13.8%
same,enrichment of double-positive antigen-specific Treg population,[1]; over the course of the 10 day study,approximately 15 fold
same,GFP/mCherry double-positive cells,"[1]; two-loci #3207 and #3251, repeat experiment (FIG. 65), 10 days, initial 15.4%",54%
same,expansion of double positive cells,[2],32 fold
